Test results from US12458604B2, “Methods of lipid nanoparticle manufacture and compositions derived therefrom” (George Mason Research Foundation, Inc., priority 2020, dated 2025).

Experiments:
[1] = pKa of the ionizable lipid measured in the LNP (TNS pKa); format: physicochemical; settings: for pKa: lipid nanoparticle (LNP) containing the ionizable lipid; for DpKa: ACD pKa versus TNS pKa
From the text: In some embodiments, the “LNP lipids” are MC3, DLin, and/or KC2 as shown below. The table highlights the pKa of the ionizable lipid measured in the LNP (TNS pKa) versus the pKa in aqueous medium predicated by a commercial software ACDLabs Percepta.:
In one embodiment, the amount of nucleic acid is represented by the LNP mole ratio of the amine on the ionizable lipid to the phosphate groups on the nucleic acid backbone and is typically about 3 to about 6. In one embodiment, the pKa of the LNP is in the about 6 to about 7 range corresponding to the pH in the early endosome. A link between the pKa of ionizable lipid in the LNP and gene silencing efficiency has shown that an LNP pKa in the range of about 6 to about 7 produced more silencing for the ionizable lipid DLinDMA and was associated with promoting lipid structures that could disrupt the membrane of the endosome. The pKa of the LNP may be measured using the pH-dependence of fluorescence enhancement of the anionic dye TNS.

HEK293 cells = assay: Firefly Luciferase Assay for mRNA Delivery Efficiency; format: cell-based; settings: for potency when sodium acetate concentration was reduced from 60 mM to 25 mM / potency when mixed at the higher concentration 1.5 mg/ml vs the lower concentration 0.25 mg/ml: Example 12; for potency when mixed at the higher concentration 1.5 mg/ml vs the lower concentration 0.25 mg/ml / LNP potency at the higher versus lower mixing concentration: same dose; for LNP potency at the higher versus lower mixing concentration: NP 4, sodium acetate pH 4
Description: Summary: LNPs were formulated using total lipid concentration of 6 to 27 mM comprised of KC2/DSPC/Cholesterol/PEG-DMG (50:10:38.5:1.5 mol %). Each one of the lipids were solubilized in ethanol until a clear solution was observed. The four lipids were combined to get 50 mM total lipid concentration (25/5/19.25/0.75 mM respectively), then serial dilutions were done to reach 6 to 27 mM. […] Purified mRNA was ethanol precipitated, washed and resuspended in nuclease-free water to reach concentrations of 1 mg/mL. […] 16 μl Lipid Mix and 341 mRNA solution were mixed on Setting 3 and ejected into 48 μl 1×DPBS pH 7.4. The formed LNPS were then diluted into an additional 96 μl 1×DPBS pH 7.4. LNPs were then dialyzed against 1×DPBS pH 7.4 for 4×1 hr. LNPs were then diluted so that 32 ul contained 200 ng and 12K HEK293 cells were transfected with the same 200 ng dose but manufactured at different concentrations in the microfluidic mixer.
A. Firefly Luciferase Assay for mRNA Delivery Efficiency. After 24 hours of transfection, transfected cells were conditioned to room temperature for 30 minutes prior the Firefly Luciferase Assay. Quantilum Recombinant Luciferase standard curve was prepared in 10% EMEM in 5-fold serial dilutions. 50 ul of each standard point from the range of 3.9×10^−5 mg/ml to 4.88×10^−3 mg/ml were included in the microplate as a positive enzyme activity control (data not shown) to maintain a linearity of 10^7 RLU/mg/ml. The ONE-Glo substrate, previously conditioned to room temperature for at least 4 hours, was added to each untransfected, transfected and Quantilum wells in a ratio 1:1. Assay plates were incubated for 3 minutes in darkness and immediately introduced into the Cytation 5 Cell Imaging Multi-Mode Reader (Biotek) to read luminescence.
Each one of the lipids were solubilized in ethanol until a clear solution was observed. […] To prepare 75 mM total lipid concentration (37.5/7.5/28.88/1.13 mM respectively), KC2/DL-ADDE-C2C2-PipZ/BODD-ADDE-C2C4-PipZ and Cholesterol were mixed first, same for DSPC and PEG to solubilize both solutions in ethanol before combining them to reach 75 mM. […] Purified mRNA was ethanol precipitated, washed and resuspended in nuclease-free water to reach concentrations of 4.4 mg/ml. […] 16 μl Lipid Mix and 341 mRNA solution were mixed on Setting 3 and ejected into 48 μl 1×DPBS pH 7.4. The formed LNPS were then diluted into an additional 96 μl 1×DPBS pH 7.4. LNPs were then dialyzed against 1×DPBS pH 7.4 for 4×1 hr. LNPs were then diluted so that 32 ul contained 25-200 ng and 12K HEK293 cells were transfected with the same dose but manufactured at different concentrations in the microfluidic mixer.

mice = assay: In vivo and ex vivo Firefly Luciferase expression (IVIS); settings: for higher potency in vivo of buffer-free assembly compared to using a buffer: by IVIS, high lipid and mRNA mixing concentrations, 0.25 protons per ionizable lipid, NP 4
Description: C: In vivo Firefly Luciferase expression in IM administration. 5 ug of encapsulated mRNA were injected in mice in intramuscular (I.M.), intradermal (ID.) and intravenous (I.V.) injections. ROIs were calculated using the IVIS system. Imaging were performed at 4 and 20 hours.
(§1) C: In vivo Firefly Luciferase expression in IM administration. 0.5-5 ug of total mRNA was injected in mice in intramuscular (I.M.) injections. Luciferin was administrated intraperitoneally at 4 hours post-injection and luciferase expression monitored by live animal imaging at 4 and 24 hours. ROIs were calculated using the IVIS system.
as §1, with “D:” for “C:”, “In vivo and ex” for “In”, “administration for LNPs mixed at 1.5 mg/ml. 1” for “administration. 0.5-5”, “4” for “4 and 24”, “system. For Ex Vivo, organs were extracted and imaged immediately after In Vivo imaging.” for “system.”
E: In vivo and ex vivo Firefly Luciferase expression in IV administration for LNPs mixed at 1.5 mg/ml. 1 ug of total mRNA was injected in mice in […] (I.V.) injections. Luciferin was administrated intraperitoneally at 4 hours post-injection and luciferase expression monitored by live animal imaging at 4 hours. ROIs were calculated using the IVIS system. For Ex Vivo, organs were extracted and imaged immediately after In Vivo imaging.

SARS-CoV-2 = assay: In vivo protection against viral challenge; settings: SARS-CoV-2 immunogen mRNA, mice, I.M.
Description: Summary: LNPs were formulated using total lipid concentration of 10-75 mM comprised of several ionizable/DSPC/Cholesterol/PEG-DMG (47-50:10-13:37-38.5:1.5-2 mol %). Each one of the lipids were solubilized in ethanol until a clear solution was observed. The four lipids were combined to get 75 mM total lipid concentration then serial dilutions were done to reach 10 mM. Codon optimized 2019-nCoV Wuhan S-2P (Covid) sequence was cloned into an mRNA plasmid (optimized 3′ and 5′ UTR and containing a 101 polyA tail (SEQ ID NO: 4)) for co-transcriptional capping, in vitro transcribed using N1 methyl pseudouridine modified nucleoside and cellulose purified to remove dsRNA. Purified mRNA was ethanol precipitated, washed and resuspended in nuclease-free water to reach concentrations of 5.5 mg/ml. […] 16 μl Lipid Mix and 32 μl mRNA solution were mixed on Setting 3 and ejected into 48 μl 1×DPBS pH 7.4. The formed LNPS were then diluted into an additional 96 μl 1×DPBS pH 7.4. LNPs were then dialyzed against 1×DPBS pH 7.4 for 4×1 hr. LNPs were then diluted so that 32 ul contained 25-200 ng and 12K HEK293 cells were transfected with the same dose but manufactured at different concentrations in the microfluidic mixer.
A: In vivo protection against viral challenge—Survival proportion, Weight and Temperature in Challenge model. […]

[2] = pKa of the ionizable lipid measured in the LNP; published ionizable lipids; cited from earlier work

Question: For `CCCCC/C=C\C/C=C\CCCCCCCCOC(=O)CCN(CCC(=O)OCCCCCCCC/C=C\C/C=C\CCCCC)CCN1CCN(C)CC1` (racemic) [DL-C2/C2-PipZ], which pKa [1] is on record?
Answer: ~7.5

Question: What about the “potency when sodium acetate concentration was reduced from 60 mM to 25 mM” value (HEK293 cells) of the same compound?
Answer: did not show either effect

Question: And the “potency when mixed at the higher concentration 1.5 mg/ml vs the lower concentration 0.25 mg/ml” value (“potency … vs the lower concentration 0.25 mg/ml” below) (HEK293 cells)?
Answer: did not

Question: With `CCCCCCCCC(CCCCCCCC)COC(=O)CCN(CCCCN1CCN(C)CC1)CCC(=O)OCC(CCCCCCCC)CCCCCCCC` [BOD-C2/C4-PipZ] as the compound, how does the pKa [1] read?
Answer: ~6.5

Question: What about the “higher potency in vivo of buffer-free assembly compared to using a buffer” value (mice; IM administration) of the same compound?
Answer: 3 ×

Question: What about the “higher potency in vivo of buffer-free assembly compared to using a buffer” value (mice; IV administration) of the same compound?
Answer: 3 ×

Question: And the “Protective against lethal challenge” value (SARS-CoV-2; 0.25 ug)?
Answer: 100%

Question: And the “potency when sodium acetate concentration was reduced from 60 mM to 25 mM” value (HEK293 cells)?
Answer: increased potency

Question: And the “potency … vs the lower concentration 0.25 mg/ml” value (HEK293 cells)?
Answer: large increase in potency

Question: And the “potency on increasing pH from 4 to 5” value (HEK293 cells; Example 13, 1.5 mg/ml mRNA in 25 mM NaOAc)?
Answer: increases potency

Question: What about the “LNP potency at the higher versus lower mixing concentration” value (HEK293 cells; in vitro) of the same compound?
Answer: LNP potency increases

Question: With `CCCCC/C=C\C/C=C\CCCCCCCCOCC(CN(C)C)OCCCCCCCC/C=C\C/C=C\CCCCC` (centres unmarked) [DLin] as the compound, how does the DpKa [1] read?
Answer: 1.8

Question: With `CCCCC/C=C\C/C=C\CCCCCCCCC1(CCCCCCCC/C=C\C/C=C\CCCCC)OCC(CCN(C)C)O1` (centres unmarked) [KC2] as the compound, how does the DpKa [1] read?
Answer: 2.6

Question: And the pKa [1]?
Answer: ~6.5

Question: And the “delivery efficiency at the same dose with increased mixing concentration” value (mice; in vivo, 5 ug of encapsulated mRNA, lipids 5 to 100 mM, mRNA 0.1 to 2 mg/ml)?
Answer: increased delivery efficiency

Question: What about the “TNS pKa” value [2] of the same compound?
Answer: 6.7

Question: And the “LNP potency increase when reducing sodium acetate from 50 mM to 25 mM” value (HEK293 cells; 1.5 mg/ml of mRNA, pH 4, NP 4)?
Answer: 44%

Question: What about the “potency when sodium acetate concentration was reduced from 60 mM to 25 mM” value (HEK293 cells) of the same compound?
Answer: increased potency

Question: And the “potency … vs the lower concentration 0.25 mg/ml” value (HEK293 cells)?
Answer: large increase in potency

Question: What about the “delivery efficiency at the same dose with increased mixing concentration” value (HEK293 cells; in vitro, KC2/DSPC/Cholesterol/PEG-DMG LNPs, NP 4) of the same compound?
Answer: increased delivery efficiency at the same dose only at the lowest NaOAc concentration of 50 mM

Question: And the “LNP potency at the higher versus lower mixing concentration” value (HEK293 cells; in vitro)?
Answer: LNP potency increases

Question: And the “LNP potency increase when reducing sodium acetate concentration from 25 mM to 10 mM” value (HEK293 cells; mRNA concentration of 0.25 mg/ml, pH 4, NP 4)?
Answer: 2.2 ×

Question: Which DpKa [1] does the source give for `CCCCC/C=C\C/C=C\CCCCCCCCC(CCCCCCCC/C=C\C/C=C\CCCCC)OC(=O)CCCN(C)C` [MC3] here?
Answer: 3

Question: What about the pKa [1] of the same compound?
Answer: ~6.5

Question: And the “TNS pKa” value [2]?
Answer: 6.4

Question: What about the “Protective against lethal challenge” value (SARS-CoV-2; 0.5 ug) of the same compound?
Answer: 100%

Question: What about the “potency when sodium acetate concentration was reduced from 60 mM to 25 mM” value (HEK293 cells) of the same compound?
Answer: increased potency

Question: What about the “potency … vs the lower concentration 0.25 mg/ml” value (HEK293 cells) of the same compound?
Answer: large increase in potency

Question: And the “LNP potency at the higher versus lower mixing concentration” value (HEK293 cells; in vitro)?
Answer: LNP potency increases
